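Grown in 96-well plates, cells were treated for 48 hours with each compound at five concentrations. Insufficient inhibition: endpoint recorded as highest concentration tested. Here, GI50 denotes the concentration required for 50% inhibition of growth. TGI marks complete inhibition of growth.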
Experiments:
Assay in all cases: growth of human tumour cells (NCI), 48 h
RPMI-8226 leukemia = test system: RPMI-8226 leukemia
NCI-H23 lung = test system: NCI-H23 lung
HCC-2998 colon = test system: HCC-2998 colon
COLO 205 colon = test system: COLO 205 colon
UO-31 renal = test system: UO-31 renal
HS 578T breast = test system: HS 578T breast
SN12C renal = test system: SN12C renal
SF-295 CNS = test system: SF-295 CNS
NCI-H460 lung = test system: NCI-H460 lung
K-562 leukemia = test system: K-562 leukemia

SMILES | GI50 (RPMI-8226 leukemia) | TGI (RPMI-8226 leukemia) | GI50 (NCI-H23 lung) | TGI (NCI-H23 lung) | GI50 (HCC-2998 colon) | TGI (HCC-2998 colon) | GI50 (COLO 205 colon) | TGI (COLO 205 colon) | GI50 (UO-31 renal) | TGI (UO-31 renal) | GI50 (HS 578T breast) | TGI (HS 578T breast) | GI50 (SN12C renal) | TGI (SN12C renal) | GI50 (SF-295 CNS) | TGI (SF-295 CNS) | GI50 (NCI-H460 lung) | TGI (NCI-H460 lung) | GI50 (K-562 leukemia) | TGI (K-562 leukemia)
COc1ccc(C2CC(c3cccc(Nc4ccnc5cc(Cl)ccc45)c3)=NN2c2ccc(Cl)cc2)cc1 (stereo not drawn) | 4.7 µM | 31.9 µM | 17.5 µM | > 100 µM | 3.41 µM | 15.1 µM | 3.78 µM | 19.7 µM | 1.87 µM | 31.3 µM | 14.7 µM | > 100 µM | 13 µM | > 100 µM | 5.8 µM | 23.3 µM | 3.04 µM | 17.4 µM | 2.75 µM | > 100 µM
N#Cc1ccccc1C#C/C=C\C#Cc1cnccn1 | 2.71 µM | > 21.5 µM | 7.04 µM | 22.4 µM | 4.79 µM | 28.2 µM | 19.7 µM | > 57.5 µM | 44 µM | > 100 µM | 27.5 µM | > 93.1 µM | 13.8 µM | 41.5 µM | 6 µM | > 25 µM | 39.4 µM | > 100 µM | 4.73 µM | > 100 µM
COc1cc(C2C3=C(COC3=O)N(CCO)c3cc4c(cc32)CCC4)cc(OC)c1OC (stereo not drawn) | 0.135 µM | > 12.2 µM | 0.0903 µM | – | 0.0693 µM | 0.164 µM | 0.0651 µM | 0.148 µM | 0.228 µM | > 17 µM | 0.104 µM | > 32.5 µM | 0.142 µM | > 32.5 µM | 0.0479 µM | – | 0.106 µM | 1.1 µM | 0.0955 µM | > 10.4 µM
COc1ccc(N2CCN(CC(=O)N3CCN(c4nnc(-c5ccc(Cl)cc5)c(-c5ccc(Cl)cc5)n4)CC3)CC2)cc1 | 6.05 µM | > 100 µM | 35.9 µM | > 100 µM | 9.94 µM | > 100 µM | 6.6 µM | > 100 µM | 2.8 µM | > 100 µM | > 100 µM | > 100 µM | 24.8 µM | > 100 µM | 7.09 µM | > 100 µM | 7 µM | > 100 µM | 5.8 µM | > 100 µM
COc1ccc(/C=C2\CC(C)CC3C2=NN(C(C)=O)C3c2ccc(OC)c(OC)c2)cc1OC (stereo not drawn) | 8.19 µM | 32 µM | 14.9 µM | 29.3 µM | 12 µM | 24.3 µM | 11.1 µM | 27.7 µM | 13.3 µM | 29.6 µM | 26.2 µM | 61.3 µM | 22.7 µM | 62.3 µM | 19.9 µM | 50.2 µM | 15.5 µM | 34.9 µM | 13 µM | > 100 µM
N#Cc1c(-c2ccc(Cl)cc2)n([O-])c2ccccc2[n+]1=O | 1.99 µM | 5.11 µM | 16.2 µM | 31.3 µM | 13.3 µM | 26 µM | 23 µM | 54.4 µM | 13.7 µM | 29.7 µM | 24.6 µM | 53.8 µM | 15.5 µM | 37.2 µM | 16.4 µM | 30.3 µM | 18.5 µM | 42.8 µM | 2 µM | 4.01 µM
C/C=C\C(C)=C/C(C)C(=O)CC(O)CC1CC(=O)NC(=O)C1 (stereo not drawn) | – | > 76.6 µM | – | > 100 µM | – | > 100 µM | – | > 100 µM | – | > 100 µM | – | 62.5 µM | – | > 100 µM | – | > 100 µM | – | > 100 µM | – | > 100 µM
C#Cc1cccc(NC(=O)Nc2cccc(NC(=O)CCl)c2)c1 | 12.5 µM | 48.3 µM | 14 µM | 31.2 µM | > 82.5 µM | > 82.5 µM | 58.7 µM | > 82.5 µM | > 82.5 µM | > 82.5 µM | 21.2 µM | > 82.5 µM | 17.3 µM | 49.9 µM | > 82.5 µM | > 82.5 µM | 27.3 µM | > 82.5 µM | 22.8 µM | > 82.5 µM
